Read-outs that look alike come from different tables or passages of the source.
Key:
[1] = test system: MDCK (Madin-darby canine kidney) cells; details: read-out: TC50 (toxic concentration 50%); host cells of the anti-flu virus test
[2] = test system: A-type flu virus (jifang/90-15)
[3] = test system: B-type flu virus (jifang/97-13); details: read-out: Activity for inhibiting B-type flu viruses IC50
in vitro = details: dog
[4] = test system: A-type flu virus (jifang/90-15); assay: organism not typed; details: MDCK, 36 h, read-out: Activity for inhibiting A-type flu viruses IC50
[5] = test system: B-type flu virus (jifang/97-13); assay: organism not typed; details: MDCK, 36 h, read-out: Activity for inhibiting B-type flu viruses IC50
[6] = read-out: Activity for inhibiting A-type flu viruses IC50
[7] = read-out: IC50, inhibit A-type flu virus

Structure (SMILES)	CC50 [1]	IC50 [2, 6]	IC50 [3]	CC50 (in vitro)	IC50 [4]	IC50 [5]	IC50 [2, 7]
C=C(C(=O)Nc1ccccc1Br)C1CCC(C)C2CC(=O)C(C)=C2C1 (centres unmarked) [A-5, N(2-bromo-phenyl)-Rupestonic amide]	160 µM	49 µM	–	–	–	–	–
C=C(C(=O)OCC)C1CCC(C)C2CC(=O)C(C)=C2C1 (centres unmarked) [B-1, Ethyl Rupestonic ester]	194 µM	39.1 µM	50.9 µM	–	–	–	–
C=C(C(=O)OCc1ccc([N+](=O)[O-])cc1)C1CCC(C)C2CC(=O)C(C)=C2C1 (centres unmarked) [B-15, Rupestonic (p-nitryl-benzyl)-ester]	25 µM	5.5 µM	5.5 µM	–	–	–	–
NC(=O)c1ncn([C@@H]2O[C@H](CO)[C@@H](O)[C@H]2O)n1 [Ribavirin]	–	–	–	1570 µM	1.6 µM	11.9 µM	–
C=C(C(=O)Oc1ccc(Cl)cc1)C1CCC(C)C2CC(=O)C(C)=C2C1 (centres unmarked) [B-2, Rupestonic (p-chlorophenyl)-ester]	240 µM	–	–	–	–	–	19.1 µM
C=C(C(=O)Oc1ccc(C)cc1)C1CCC(C)C2CC(=O)C(C)=C2C1 (centres unmarked) [B-9, Rupestonic (p-methylphenyl)-ester]	191 µM	–	–	–	–	–	13.4 µM
C=C(C(=O)OCc1ccccc1Br)C1CCC(C)C2CC(=O)C(C)=C2C1 (centres unmarked) [B-17, Rupestonic (o-bromobenzyl)-ester]	57.3 µM	15.2 µM	25.7 µM	–	–	–	–
C=C(C(=O)O)[C@H]1CC[C@H](C)[C@@H]2CC(=O)C(C)=C2C1 [Compound 1, rupestonic acid]	1040 µM	–	116 µM	–	–	–	–
CCOC(=O)C1=C[C@@H](OC(CC)CC)[C@H](NC(C)=O)[C@@H](N)C1 [Oseltamivir]	–	–	–	> 1220 µM	5.1 µM	–	–
C=C(C(=O)Oc1ccccc1Cl)C1CCC(C)C2CC(=O)C(C)=C2C1 (centres unmarked) [B-3, Rupestonic (o-chlorophenyl)-ester]	49.7 µM	11.5 µM	–	–	–	–	–
C=C(C(=O)Oc1ccc(Br)cc1)C1CCC(C)C2CC(=O)C(C)=C2C1 (centres unmarked) [B-4, Rupestonic (p-bromophenyl)-ester]	44.2 µM	10.2 µM	–	–	–	–	–
C=C(C(=O)OCc1ccc(Cl)cc1)C1CCC(C)C2CC(=O)C(C)=C2C1 (centres unmarked) [B-14, Rupestonic (p-chlorobenzyl)-ester]	47.7 µM	12.5 µM	19.1 µM	–	–	–	–
C=C(C(=O)Nc1ccc(Cl)cc1)C1CCC(C)C2CC(=O)C(C)=C2C1 (centres unmarked) [A-2, N(4-chloro-phenyl)-Rupestonic amide]	121 µM	19.2 µM	29.9 µM	–	–	–	–

Source: US20100087523A1, “Rupestonic acid derivatives and use thereof” (priority 2008, published 2010)
